Experimental data from PMC3418399 (Molecular microbiology, 2012).
Starred links: 1 amine or outer side, 2 acyl side, 3 side chain; linkers in the order of their positions; H or OH if unused. Positions of bridges follow the written chain, without caps; N, C: chain ends. Non-standard residues stand in square brackets, D forms with d. Residues, ends and D or L forms follow the SMILES beside them. *: point of attachment. hTyr(3S-OH,4S-OH,3'-OSO3H) = N[C@H](C(=O)O)[C@H](O)[C@@H](O)c1ccc(O)c(OS(=O)(=O)O)c1; Orn(4R-OH,5R-OH) = O=C([C@H](C[C@@H](O)[C@@H](O)N[*:3])N[*:1])[*:2]; Pro(3S-OH,4S-Me) = C[C@H]1CN[C@H](C(=O)O)[C@H]1O; X1 = CCCCCOc1ccc(-c2cc(-c3ccc(C(=O)*)cc3)no2)cc1; Gln(3R-OH) = NC(=O)C[C@@H](O)[C@H](N)C(=O)O; Hyp = O=C(O)[C@@H]1C[C@@H](O)CN1

How the values were obtained:
AD/pABC3 (Control) = assay: MIC, liquid microdilution; format: cell-based, Saccharomyces cerevisiae; details: 48 h
[1] = test system: AD/CDR1 (Wild type CaCdr1p); assay: MIC, liquid microdilution; format: cell-based, Saccharomyces cerevisiae; details: 48 h
EL1/TM2 (CaCdr1p G547R) = assay: MIC, liquid microdilution; format: cell-based, Saccharomyces cerevisiae; details: 48 h
EL3 (CaCdr1p Q714K) = assay: MIC, liquid microdilution; format: cell-based, Saccharomyces cerevisiae; details: 48 h
EL4-1 (CaCdr1p Q1226K) = assay: MIC, liquid microdilution; format: cell-based, Saccharomyces cerevisiae; details: 48 h
EL4-2 (CaCdr1p Q1226R) = assay: MIC, liquid microdilution; format: cell-based, Saccharomyces cerevisiae; details: 48 h
EL6 (CaCdr1p Q1445R) = assay: MIC, liquid microdilution; format: cell-based, Saccharomyces cerevisiae; details: 48 h
TM5 (CaCdr1p V674F) = assay: MIC, liquid microdilution; format: cell-based, Saccharomyces cerevisiae; details: 48 h
[2] = test system: AD/CDR1 (Wild type CaCdr1p; AD/CaCDR1B); assay: Agarose diffusion FLC chemosensitization assay; format: cell-based, Saccharomyces cerevisiae; details: ~6 nmole/disk, agarose diffusion, FLC 40 μg ml^−1
Cdr1p ATPase = Cdr1p ATPase (Candida albicans, UniProt P43071); assay: CaCdr1p ATPase inhibition assay; format: biochemical; details: read-out: IC50 Cdr1p ATPase; wild type CaCdr1p, oligomycin-sensitive ATPase, pH 7.5
[3] = AD/pABC3, Control, milbemycins and micafungin, I95, CSM pH 7.0, 30°C
[4] = AD/CDR1, Wild type, milbemycins and micafungin, I95, CSM pH 7.0, 30°C
[5] = EL1/TM2, G547R, milbemycins and micafungin, I95, CSM pH 7.0, 30°C
[6] = EL3, Q714K, milbemycins and micafungin, I95, CSM pH 7.0, 30°C
[7] = EL4-1, Q1226K, milbemycins and micafungin, I95, CSM pH 7.0, 30°C
[8] = EL4-2, Q1226R, milbemycins and micafungin, I95, CSM pH 7.0, 30°C
[9] = EL6, Q1445R, milbemycins and micafungin, I95, CSM pH 7.0, 30°C
[10] = TM5, V674F, milbemycins and micafungin, I95, CSM pH 7.0, 30°C

Sequence of Cdr1p ATPase (P43071 whole entry): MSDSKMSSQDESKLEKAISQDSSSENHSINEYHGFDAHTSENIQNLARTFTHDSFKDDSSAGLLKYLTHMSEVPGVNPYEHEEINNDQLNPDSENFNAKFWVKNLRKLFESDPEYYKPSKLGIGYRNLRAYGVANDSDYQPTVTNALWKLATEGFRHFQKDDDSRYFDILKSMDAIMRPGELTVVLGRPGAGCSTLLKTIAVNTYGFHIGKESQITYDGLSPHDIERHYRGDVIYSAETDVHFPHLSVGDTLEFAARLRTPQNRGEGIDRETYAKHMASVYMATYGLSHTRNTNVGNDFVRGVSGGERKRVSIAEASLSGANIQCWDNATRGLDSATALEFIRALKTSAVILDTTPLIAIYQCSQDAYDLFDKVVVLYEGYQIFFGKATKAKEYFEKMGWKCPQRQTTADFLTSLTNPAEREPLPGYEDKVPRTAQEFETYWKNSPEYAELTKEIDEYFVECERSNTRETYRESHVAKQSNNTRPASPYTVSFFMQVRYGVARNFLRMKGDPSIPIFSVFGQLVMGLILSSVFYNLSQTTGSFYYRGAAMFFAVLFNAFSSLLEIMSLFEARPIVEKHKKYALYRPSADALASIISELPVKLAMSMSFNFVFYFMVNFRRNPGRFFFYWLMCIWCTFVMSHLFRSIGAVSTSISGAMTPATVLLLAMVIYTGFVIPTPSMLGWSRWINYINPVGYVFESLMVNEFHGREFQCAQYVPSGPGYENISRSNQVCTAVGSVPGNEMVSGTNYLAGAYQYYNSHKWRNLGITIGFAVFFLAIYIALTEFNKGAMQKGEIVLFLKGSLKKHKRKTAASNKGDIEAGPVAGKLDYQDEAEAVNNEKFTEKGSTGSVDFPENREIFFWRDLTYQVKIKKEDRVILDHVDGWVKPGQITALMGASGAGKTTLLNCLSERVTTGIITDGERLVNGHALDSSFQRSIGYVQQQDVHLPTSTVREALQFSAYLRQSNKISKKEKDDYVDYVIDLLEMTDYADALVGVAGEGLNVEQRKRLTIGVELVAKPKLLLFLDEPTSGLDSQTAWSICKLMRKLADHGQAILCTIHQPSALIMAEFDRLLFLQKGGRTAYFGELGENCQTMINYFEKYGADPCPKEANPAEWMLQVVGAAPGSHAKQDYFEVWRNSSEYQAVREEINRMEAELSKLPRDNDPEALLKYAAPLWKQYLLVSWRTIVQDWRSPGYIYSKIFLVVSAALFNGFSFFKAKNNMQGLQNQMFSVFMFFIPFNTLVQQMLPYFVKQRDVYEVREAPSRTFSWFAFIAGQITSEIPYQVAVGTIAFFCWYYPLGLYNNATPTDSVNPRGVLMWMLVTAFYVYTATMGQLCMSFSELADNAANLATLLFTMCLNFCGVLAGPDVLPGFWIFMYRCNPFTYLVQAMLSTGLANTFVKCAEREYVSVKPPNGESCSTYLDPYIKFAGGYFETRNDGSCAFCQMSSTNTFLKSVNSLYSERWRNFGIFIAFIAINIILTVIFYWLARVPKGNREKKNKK

Compound	MIC (AD/pABC3 (Control); Saccharomyces cerevisiae, pH 7)	MIC ([1]; Saccharomyces cerevisiae, pH 7)	MIC (EL1/TM2 (CaCdr1p G547R); Saccharomyces cerevisiae, pH 7)	MIC (EL3 (CaCdr1p Q714K); Saccharomyces cerevisiae, pH 7)	MIC (EL4-1 (CaCdr1p Q1226K); Saccharomyces cerevisiae, pH 7)	MIC (EL4-2 (CaCdr1p Q1226R); Saccharomyces cerevisiae, pH 7)	MIC (EL6 (CaCdr1p Q1445R); Saccharomyces cerevisiae, pH 7)	MIC (TM5 (CaCdr1p V674F); Saccharomyces cerevisiae, pH 7)	other results
CN1CCN(CCCN2c3ccccc3Sc3ccc(C(F)(F)F)cc32)CC1 [Trifluoperazine]	5 µM	40 µM	40 µM	40 µM	40 µM	40 µM	80 µM	20 µM	–
D-NH2-FFKWQR(Mtr)KK-CONH2	–	–	–	–	–	–	–	–	chemosensitization of cells overexpressing CaCdr1p to FLC [2]: chemosensitizing activity
CCCCCOc1ccc(-c2cc(-c3ccc(C(=O)N[C@H]4C[C@@H](O)[C@@H](O)NC(=O)[C@@H]5[C@@H](O)[C@@H](C)CN5C(=O)[C@H]([C@H](O)CC(N)=O)NC(=O)[C@H]([C@H](O)[C@@H](O)c5ccc(O)c(OS(=O)(=O)O)c5)NC(=O)[C@@H]5C[C@@H](O)CN5C(=O)[C@H]([C@@H](C)O)NC4=O)cc3)no2)cc1 [Micafungin] (X1-[Orn(4R-OH,5R-OH)]T[Hyp][hTyr(3S-OH,4S-OH,3'-OSO3H)][Gln(3R-OH)][Pro(3S-OH,4S-Me)]; lactam 1-C)	0.25 mg/L	0.125 mg/L	0.125 mg/L	–	0.125 mg/L	0.125 mg/L	–	0.125 mg/L	–
OC(Cn1cncn1)(Cn1cncn1)c1ccc(F)cc1F [Fluconazole]	0.5 mg/L	240 mg/L	100 mg/L	240 mg/L	80 mg/L	240 mg/L	240 mg/L	160 mg/L	–
D-NH2-FFKWQRRR-CONH2 + Mtr [RC21]	–	–	–	–	–	–	–	–	IC50 (Cdr1p ATPase): 1.3 µM
C=CC[C@@H]1/C=C(\C)C[C@H](C)C[C@H](OC)[C@H]2O[C@@](O)(C(=O)C(=O)N3CCCC[C@H]3C(=O)O[C@H](/C(C)=C/[C@@H]3CC[C@@H](O)[C@H](OC)C3)[C@H](C)[C@@H](O)CC1=O)[C@H](C)C[C@@H]2OC [FK506]	0.313 mg/L	40 mg/L	40 mg/L	40 mg/L	40 mg/L	40 mg/L	40 mg/L	40 mg/L	–
D-NH2-FFKWQRRR-CONH2	–	–	–	–	–	–	–	–	IC50 (Cdr1p ATPase): 2 µM
Enniatin	–	–	–	–	–	–	–	–	MIC (AD/pABC3 (Control); AD/pABC3, Control, cycloheximide, enniatin and FK506, CSM pH 7.0, 30°C): 4 mg/L; MIC ([1]; AD/CDR1, Wild type, cycloheximide, enniatin and FK506, CSM pH 7.0, 30°C): 4 mg/L; MIC (EL1/TM2 (CaCdr1p G547R); EL1/TM2, G547R, cycloheximide, enniatin and FK506, CSM pH 7.0, 30°C): 4 mg/L; MIC (EL3 (CaCdr1p Q714K); EL3, Q714K, cycloheximide, enniatin and FK506, CSM pH 7.0, 30°C): 4 mg/L; MIC (EL4-1 (CaCdr1p Q1226K); EL4-1, Q1226K, cycloheximide, enniatin and FK506, CSM pH 7.0, 30°C): 4 mg/L; MIC (EL4-2 (CaCdr1p Q1226R); EL4-2, Q1226R, cycloheximide, enniatin and FK506, CSM pH 7.0, 30°C): 4 mg/L; MIC (EL6 (CaCdr1p Q1445R); EL6, Q1445R, cycloheximide, enniatin and FK506, CSM pH 7.0, 30°C): 4 mg/L; MIC (TM5 (CaCdr1p V674F); TM5, V674F, cycloheximide, enniatin and FK506, CSM pH 7.0, 30°C): 4 mg/L
CC(C)=CC(=O)OCC1=C[C@H]2C(=O)O[C@H]3C[C@@H](C/C=C(\C)C[C@@H](C)/C=C/C=C4\CO[C@H]([C@@H]1O)[C@@]42O)O[C@@]1(CC[C@H](C)[C@@H](C)O1)C3 [Milbemycin α11]	–	–	–	–	–	–	–	–	MIC (AD/pABC3 (Control); [3]): 4 mg/L; MIC [1, 4]: 4 mg/L; MIC (EL1/TM2 (CaCdr1p G547R); [5]): 8 mg/L; MIC (EL3 (CaCdr1p Q714K); [6]): 4 mg/L; MIC (EL4-1 (CaCdr1p Q1226K); [7]): 8 mg/L; MIC (EL4-2 (CaCdr1p Q1226R); [8]): 4 mg/L; MIC (EL6 (CaCdr1p Q1445R); [9]): 4 mg/L; MIC (TM5 (CaCdr1p V674F); [10]): >8 mg/L
Milbemycin β9	–	–	–	–	–	–	–	–	MIC (AD/pABC3 (Control); [3]): 8 mg/L; MIC [1, 4]: >8 mg/L; MIC (EL1/TM2 (CaCdr1p G547R); [5]): >8 mg/L; MIC (EL3 (CaCdr1p Q714K); [6]): 8 mg/L; MIC (EL4-1 (CaCdr1p Q1226K); [7]): >8 mg/L; MIC (EL4-2 (CaCdr1p Q1226R); [8]): >8 mg/L; MIC (EL6 (CaCdr1p Q1445R); [9]): >8 mg/L; MIC (TM5 (CaCdr1p V674F); [10]): >8 mg/L
